Like-named read-outs stand apart in the source and are kept apart here. Numbered stars: 1 amine (or outer) side, 2 acyl side, 3 side chain; on linkers, the order of the positions; unused ones are H or OH. Bridge positions count the residues as written; N and C are the ends. Side chains are listed from the residue outwards. Peptide text beside a SMILES is read from it. * marks the point of attachment. C20 diacid = O=C(O)CCCCCCCCCCCCCCCCCCC(=O)*; γGlu = O=C(O)[C@H](CCC(=O)[*:2])N[*:1]; AEEA = NCCOCCOCC(=O)O
Columns and labels:
[1] = biological target: T1, human amylin receptor (membranes from Amylin 3(a)/CRE-luc cells) (Homo sapiens, UniProt O60896+P30988); assay: ASSAY (V) binding to the human amylin receptor (SPA, 125I-rat amylin);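 note: competition binding of cell membranes (35 ng/µL) mixed with SPA beads in 384-well plates at 40 µL total volume, read by scintillation counting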
T1 construct: expressed in transfected cells
T1 sequence (P30988 25-474): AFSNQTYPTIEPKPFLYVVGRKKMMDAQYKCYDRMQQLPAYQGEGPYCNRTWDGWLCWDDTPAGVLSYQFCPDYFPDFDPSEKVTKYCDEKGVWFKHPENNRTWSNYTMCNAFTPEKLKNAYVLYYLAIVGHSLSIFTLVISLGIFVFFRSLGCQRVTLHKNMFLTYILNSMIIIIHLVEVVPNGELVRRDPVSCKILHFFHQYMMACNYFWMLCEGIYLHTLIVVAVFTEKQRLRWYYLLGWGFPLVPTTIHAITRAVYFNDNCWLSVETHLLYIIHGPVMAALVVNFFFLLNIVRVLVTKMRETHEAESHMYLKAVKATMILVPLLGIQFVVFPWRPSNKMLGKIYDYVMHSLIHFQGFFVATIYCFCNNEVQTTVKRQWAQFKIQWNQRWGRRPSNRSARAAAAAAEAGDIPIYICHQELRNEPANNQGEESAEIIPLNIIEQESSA
T1 sequence (O60896 24-148 partner): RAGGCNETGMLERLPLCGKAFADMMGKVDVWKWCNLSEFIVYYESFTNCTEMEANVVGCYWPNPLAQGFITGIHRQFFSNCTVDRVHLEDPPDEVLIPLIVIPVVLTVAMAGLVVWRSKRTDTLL

[2] = biological target: T2, human calcitonin (a) receptor in BHK570 cells (Homo sapiens, UniProt P30988); assay: ASSAY (II)a functional assay, human calcitonin receptor (CRE luciferase); assay type: cell-based
T2 construct: expressed in transfected cells
T2 sequence (P30988 25-474): T1 sequence (P30988 25-474)
Procedure, shortened: (§1)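 Readout is luminescence from a cAMP-responsive CRE-luc reporter, developed with LucLite for 30 min at room temperature. Cells were treated for 3 h at 37 °C in 10% FBS/DMEM buffered with 10 mM Hepes (pH 7.4).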

[3] = biological target: T3, human amylin 3(a) receptor (human calcitonin receptor + RAMP-3) in BHK570 cells (Homo sapiens, UniProt O60896+P30988); assay: ASSAY (II)a functional assay, human amylin receptor (CRE luciferase); assay type: cell-based
T3 construct: expressed in transfected cells
Procedure, shortened: as §1

rat calcitonin receptor = biological target: T4, rat calcitonin receptor (Rattus norvegicus, UniProt P32214); assay: ASSAY (VIII) binding to the rat calcitonin receptor; details: Table 7, read-out: rCTR bind IC50
T4 construct: expressed in transfected cells; host or cells: BHK tk'ts 13 (transient, FuGENE 6), membranes
T4 sequence (P32214 25-479 isoform P32214-2 limits assumed): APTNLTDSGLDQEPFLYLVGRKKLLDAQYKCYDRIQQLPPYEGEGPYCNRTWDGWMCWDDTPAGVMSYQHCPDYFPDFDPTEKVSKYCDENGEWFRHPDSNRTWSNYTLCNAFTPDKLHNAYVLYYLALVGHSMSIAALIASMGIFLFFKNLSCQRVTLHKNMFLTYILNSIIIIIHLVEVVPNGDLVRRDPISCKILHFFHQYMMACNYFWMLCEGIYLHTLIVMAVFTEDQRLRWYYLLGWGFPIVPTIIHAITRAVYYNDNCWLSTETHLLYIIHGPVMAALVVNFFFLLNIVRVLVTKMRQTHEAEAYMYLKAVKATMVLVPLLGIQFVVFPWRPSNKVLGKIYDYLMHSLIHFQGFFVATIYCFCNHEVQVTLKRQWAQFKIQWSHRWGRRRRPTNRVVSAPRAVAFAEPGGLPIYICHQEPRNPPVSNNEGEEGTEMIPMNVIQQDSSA
Procedure, shortened: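 BHK tk′ts 13 cells, transient rat calcitonin receptor transfection; DMEM + 10% FBS; harvest ~48 h post-transfection; membrane prep.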

[4] = Table 5, selectivity, hCTR bind IC50 / hAmylin-R bind IC50
[5] = Table 5a, selectivity, hCTR bind IC50 / hAmylin-R bind IC50
[6] = Table 5b, selectivity, hCTR bind IC50 / hAmylin-R bind IC50
[7] = Table 5c, selectivity, hCTR bind IC50 / hAmylin-R bind IC50
[8] = Table 7, human binding selectivity, included for comparison
[9] = Table 7a (preferred compounds), human binding selectivity, included for comparison
[10] = ratio of human calcitonin receptor binding IC50 to human amylin receptor binding IC50
[11] = hCTR funct. EC50 divided by hAmylin-R funct. EC50
[12] = hCTR funct. EC50 over hAmylin-R funct. EC50
[13] = human functional selectivity: hCTR funct. EC50 / hAmylin-R funct. EC50
[14] = Table 4, read-out: hAmylin-R bind IC50
[15] = hCTR funct. EC50 / hAmylin-R funct. EC50
[16] = human amylin receptor functional potency, assay (II), read-out: hAmylin-R funct. EC50

| SMILES | IC50 [1] [nM] | Ratio hCT/hAmylin binding [1, 4] | Ratio hCT/hAmylin binding [1, 5] | Ratio hCT/hAmylin binding [1, 6] | Ratio hCT/hAmylin binding [1, 7] | Ratio hCT/hAmylin binding [1, 8] | Ratio hCT/hAmylin binding [1, 9] | Ratio hCT/hAmylin binding [1, 10] | EC50 [2] [nM] | EC50 [3] [nM] | Ratio hCT/hAmylin funct. [3, 11] | Ratio hCT/hAmylin funct. [3, 12] | Ratio hCT/hAmylin funct. [3, 13] | IC50 (rat calcitonin receptor) [nM] | IC50 [1, 14] [nM] | EC50 ([2]; read-out: hCTR funct. EC50) [nM] | Ratio hCT/hAmylin funct. [3, 15] | EC50 [3, 16] [nM] |
| --- | --- | --- | --- | --- | --- | --- | --- | --- | --- | --- | --- | --- | --- | --- | --- | --- | --- | --- |
| CC[C@H](C)[C@H](NC(=O)[C@H](C)NC(=O)CNC(=O)[C@H](Cc1ccccc1)NC(=O)[C@H](CC(N)=O)NC(=O)[C@@H]1CCCN1C(=O)[C@H](CO)NC(=O)[C@H](CO)NC(=O)[C@H](Cc1c[nH]cn1)NC(=O)[C@H](CCCNC(=N)N)NC(=O)[C@H](CC(C)C)NC(=O)[C@H](Cc1ccccc1)NC(=O)[C@H](CCCCN)NC(=O)[C@H](C)NC(=O)[C@H](CC(C)C)NC(=O)[C@H](CCCNC(=N)N)NC(=O)[C@H](CCC(N)=O)NC(=O)[C@@H](NC(=O)[C@H](C)NC(=O)[C@@H]1CSSC[C@H](NC(=O)[C@@H](N)CCCCNC(=O)COCCOCCNC(=O)CC[C@H](NC(=O)CCCCCCCCCCCCCCCCCCC(=O)O)C(=O)O)C(=O)N[C@@H](CC(N)=O)C(=O)N[C@@H]([C@@H](C)O)C(=O)N[C@@H](C)C(=O)N[C@@H]([C@@H](C)O)C(=O)N1)[C@@H](C)O)C(=O)N1CCC[C@H]1C(=O)N[C@@H](CO)C(=O)N[C@@H](CO)C(=O)N[C@H](C(=O)N1CCC[C@H]1C(=O)N[C@H](C(=O)NCC(=O)N[C@@H](CO)C(=O)N[C@@H](CC(N)=O)C(=O)N[C@H](C(=O)N[C@@H](Cc1ccc(O)cc1)C(N)=O)[C@@H](C)O)C(C)C)[C@@H](C)O [Example 74] (H-K([AEEA-γGlu-C20 diacid])CNTATCATQRLAKFLRHSSPNFGAIPSSTPVGSNTY-NH2; disulfide 2-7; N-terminus assumed) | 0.791 | 101.0 | 101.0 | 101.0 | 101.0 | 101.0 | 101.0 | 101.0 | 37.5 | 0.666 | 56.3 | 56.3 | 56.3 | 109 | – | – | – | – |
| CC[C@H](C)[C@H](NC(=O)[C@H](C)NC(=O)CNC(=O)[C@H](Cc1ccccc1)NC(=O)[C@H](CC(N)=O)NC(=O)[C@@H]1CCCN1C(=O)[C@H](CO)NC(=O)[C@H](CO)NC(=O)[C@H](Cc1c[nH]cn1)NC(=O)[C@H](CCCNC(=N)N)NC(=O)[C@H](CC(C)C)NC(=O)[C@H](Cc1ccccc1)NC(=O)[C@H](C)NC(=O)[C@H](C)NC(=O)[C@H](CC(C)C)NC(=O)[C@H](CCCNC(=N)N)NC(=O)[C@H](CCC(N)=O)NC(=O)[C@@H](NC(=O)[C@H](C)NC(=O)[C@@H]1CSSC[C@H](NC(=O)[C@@H](N)CCCCNC(=O)CC[C@H](NC(=O)CCCCCCCCCCCCCCCCCCC(=O)O)C(=O)O)C(=O)N[C@@H](CC(N)=O)C(=O)N[C@@H]([C@@H](C)O)C(=O)N[C@@H](C)C(=O)N[C@@H]([C@@H](C)O)C(=O)N1)[C@@H](C)O)C(=O)N1CCC[C@H]1C(=O)N[C@@H](CO)C(=O)N[C@@H](CO)C(=O)N[C@H](C(=O)N[C@@H](CC(N)=O)C(=O)N[C@H](C(=O)NCC(=O)N1CCC[C@H]1C(=O)N[C@@H](CC(N)=O)C(=O)N[C@H](C(=O)N[C@@H](Cc1ccc(O)cc1)C(N)=O)[C@@H](C)O)C(C)C)[C@@H](C)O [Example 94] (H-K([γGlu-C20 diacid])CNTATCATQRLAAFLRHSSPNFGAIPSSTNVGPNTY-NH2; disulfide 2-7 (inferred)) | – | 46.3 | 46.3 | 46.3 | 46.3 | 46.3 | 46.3 | 46.3 | – | – | 4.5 | – | 4.5 | 111 | 0.148 | 0.316 | 4.5 | 0.07 |
| CC[C@H](C)[C@H](NC(=O)[C@H](C)NC(=O)CNC(=O)[C@H](Cc1ccccc1)NC(=O)[C@H](CC(N)=O)NC(=O)[C@@H]1CCCN1C(=O)[C@H](CO)NC(=O)[C@H](CO)NC(=O)[C@H](Cc1c[nH]cn1)NC(=O)[C@H](CCCNC(=N)N)NC(=O)[C@H](CC(C)C)NC(=O)[C@H](Cc1ccccc1)NC(=O)[C@H](C)NC(=O)[C@H](C)NC(=O)[C@H](CC(C)C)NC(=O)[C@H](CCCNC(=N)N)NC(=O)[C@H](CCC(N)=O)NC(=O)[C@@H](NC(=O)[C@H](C)NC(=O)[C@@H]1CSSC[C@H](NC(=O)[C@H](CCCNC(=N)N)NC(=O)CNC(=O)CC[C@H](NC(=O)CCCCCCCCCCCCCCCCCCC(=O)O)C(=O)O)C(=O)N[C@@H](CC(N)=O)C(=O)N[C@@H]([C@@H](C)O)C(=O)N[C@@H](C)C(=O)N[C@@H]([C@@H](C)O)C(=O)N1)[C@@H](C)O)C(=O)N1CCC[C@H]1C(=O)N[C@@H](CO)C(=O)N[C@@H](CO)C(=O)N[C@H](C(=O)N[C@@H](CC(N)=O)C(=O)N[C@H](C(=O)NCC(=O)N[C@@H](Cc1c[nH]cn1)C(=O)N[C@@H](CC(N)=O)C(=O)N[C@H](C(=O)N[C@@H](Cc1ccc(O)cc1)C(N)=O)[C@@H](C)O)C(C)C)[C@@H](C)O [Example 101] ({C20 diacid-γGlu}-GRCNTATCATQRLAAFLRHSSPNFGAIPSSTNVGHNTY-NH2; disulfide 3-8) | – | 68.6 | 68.6 | 68.6 | 68.6 | 68.6 | 68.6 | 68.6 | – | – | 4.9 | 4.9 | 4.9 | 492 | 0.426 | 0.537 | 4.9 | 0.109 |
